Assay [1] has as its target T1, recombinant human Lp-PLA2 (Homo sapiens, UniProt Q13093).
T1 sequence (Q13093 22-441): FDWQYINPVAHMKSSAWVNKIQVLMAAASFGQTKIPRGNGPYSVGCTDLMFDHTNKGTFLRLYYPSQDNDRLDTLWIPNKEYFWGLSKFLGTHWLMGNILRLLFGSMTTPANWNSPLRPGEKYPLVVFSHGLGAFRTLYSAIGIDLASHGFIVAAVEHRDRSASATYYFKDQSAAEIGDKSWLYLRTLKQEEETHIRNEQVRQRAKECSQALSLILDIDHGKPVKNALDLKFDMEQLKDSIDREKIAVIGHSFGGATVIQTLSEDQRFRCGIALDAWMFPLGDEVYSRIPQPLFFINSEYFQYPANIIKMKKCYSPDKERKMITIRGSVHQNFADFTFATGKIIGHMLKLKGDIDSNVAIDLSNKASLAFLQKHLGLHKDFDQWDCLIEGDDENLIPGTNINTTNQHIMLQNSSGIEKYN
Put plainly: Recombinant human Lp-PLA2 assay (rhLp-PLA2, PED6 assay). The class given is biochemical. Summed up:
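Compounds were preincubated 30 min with 4 nM […] rhLp-PLA2 in 50 mM HEPES pH 7.4, 150 mM NaCl, 1 mM CHAPS, then PED6 substrate […] was added for 20 min at room temperature in the dark. Fluorescence was read at ex 480/em 540, and pIC50 was fitted from 1:3 serial dilutions.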

The next assay has as its target T2, Lp-PLA2 in human plasma (Homo sapiens, UniProt Q13093).
T2 construct: from tissue; host or cells: pooled human plasma
T2 sequence (Q13093 22-441): T1 sequence (Q13093 22-441)
The experiment in a line: Lp-PLA2 human plasma assay (Thio-PAF assay). To be noted: pooled human plasma; lower bounds; read-out: pIC50 values in the thio-PAF assay (converted). It is filed as biochemical. The essentials:
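Pooled human plasma preincubated 30 min with compounds, then given 2-thio-PAF substrate with CPM and NEM in 50 mM HEPES pH 7.4, 150 mM NaCl, 1 mM CHAPS. Reaction quenched after 2 min with TFA and read by fluorescence (ex 380/em 485) after 40 min at room temperature; pIC50 from curve fit.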

[2] abbreviates: lower bounds, read-out: pIC50 values in the PED6 assay (converted).
Where [3] appears, read: read-out: rhLp-PLA2 (PED6 assay) (pIC50) (converted).

Read-outs that look alike come from different tables or passages of the source.

On to `CN1c2cc(OCc3cc(F)c(Oc4ccc(F)nc4)c(F)c3)nc(=O)n2CC1(C)C` [Example E64, 7-((3,5-difluoro-4-((6-fluoropyridin-3-yl)oxy)benzyl)oxy)-1,2,2-trimethyl-2,3-dihydroimidazo[1,2-c]pyrimidin-5(1H)-one], for which the values for the IC50 (in assay [1] (setting [2]); in assay [1] (setting [3]); on Lp-PLA2 in human plasma) were not above 1 nM, 0.0794 nM and not above 100 nM, respectively.
With `CN1c2cc(OCc3ccc(Oc4ccnc(Cl)c4)c(F)c3)nc(=O)n2CC1(C)C` [Example E65, 7-((4-((2-chloropyridin-4-yl)oxy)-3-fluorobenzyl)oxy)-1,2,2-trimethyl-2,3-dihydroimidazo[1,2-c]pyrimidin-5(1H)-one], the IC50 is not above 1 nM in assay [1] (setting [2]) and not above 100 nM on Lp-PLA2 in human plasma.
The corresponding values for `CCN1c2cc(OCc3cccc(F)c3F)nc(=O)n2CC1(C)C` [Example E66, 7-((2,3-difluorobenzyl)oxy)-1-ethyl-2,2-dimethyl-2,3-dihydroimidazo[1,2-c]pyrimidin-5(1H)-one] are not above 10 nM and not above 100 nM.
On to `[2H]C([2H])(Oc1cc2n(c(=O)n1)CC(C)(C)N2C)c1cccc(F)c1F` [Example E67, 7-(dideutero(2,3-difluorobenzyl)oxy)-1,2,2-trimethyl-2,3-dihydroimidazo[1,2-c]pyrimidin-5(1H)-one], for which the IC50 in assay [1] (setting [2]) is not above 10 nM; at Lp-PLA2 in human plasma it was not above 100 nM.
As to `CC1(C)Cn2c(cc(OCc3ccc(Oc4ccnc(F)c4)c(F)c3)nc2=O)N1` [Example E68, 7-((3-fluoro-4-((2-fluoropyridin-4-yl)oxy)benzyl)oxy)-2,2-dimethyl-2,3-dihydroimidazo[1,2-c]pyrimidin-5(1H)-one], the values for the IC50 (in assay [1] (setting [2]); on Lp-PLA2 in human plasma) were not above 1 nM and not above 100 nM, respectively.
The matching figures for `CC1(C)Cn2c(cc(OCc3ccc(Oc4ccc(F)nc4)c(F)c3)nc2=O)N1` [Example E69, 7-((3-fluoro-4-((6-fluoropyridin-3-yl)oxy)benzyl)oxy)-2,2-dimethyl-2,3-dihydroimidazo[1,2-c]pyrimidin-5(1H)-one]: not above 1 nM and not above 100 nM.
The matching figures for `CC1Cn2c(cc(OCc3ccc(Oc4cccc(C(F)(F)F)c4)c(C#N)c3)nc2=O)N1C` (stereo not shown) [Example E71, 5-(((1,2-dimethyl-5-oxo-1,2,3,5-tetrahydroimidazo[1,2-c]pyrimidin-7-yl)oxy)methyl)-2-(3-(trifluoromethyl)phenoxy)benzonitrile]: not above 1 nM and not above 100 nM.
The matching figures for `C[C@H]1Cn2c(cc(OCc3cc(F)c(Oc4ccc(C(F)(F)F)nc4)c(F)c3)nc2=O)N1C` [Example E73, (S)-7-((3,5-difluoro-4-((6-(trifluoromethyl)pyridin-3-yl)oxy)benzyl)oxy)-1,2-dimethyl-1-2,3-dihydroimidazo[1,2-c]pyrimidin-5(1H)-one]: not above 1 nM and not above 100 nM.
Consider `C[C@H]1Cn2c(cc(OCc3ccc(F)c(C#N)c3)nc2=O)N1` [Example E74, (S)-2-fluoro-5-(((2-methyl-5-oxo-1,2,3,5-tetrahydroimidazo[1,2-c]pyrimidin-7-yl)oxy)methyl)benzonitrile], for which the IC50 in assay [1] (setting [2]) was not above 10 nM; on Lp-PLA2 in human plasma, not above 100 nM.
Take `C[C@H]1Cn2c(cc(OCc3ccc(F)c(C#N)c3)nc2=O)N1C` [Example E75, (S)-5-(((1,2-dimethyl-5-oxo-1,2,3,5-tetrahydroimidazo[1,2-c]pyrimidin-7-yl)oxy)methyl)-2-fluorobenzonitrile]: the IC50 in assay [1] (setting [2]) is not above 10 nM; on Lp-PLA2 in human plasma, not above 100 nM.
Take `CN1c2cc(OCc3ccc(F)cc3F)nc(=O)n2CC1(C)C` [Example E77, 7-((2,4-difluorobenzyl)oxy)-1,2,2-trimethyl-2,3-dihydroimidazo[1,2-c]pyrimidin-5(1H)-one]: the IC50 in assay [1] (setting [2]) was not above 10 nM; at Lp-PLA2 in human plasma, not above 100 nM.
The corresponding values for `C[C@H]1Cn2c(cc(OCc3ccc(Oc4ccnc(C(F)(F)F)c4)c(F)c3)nc2=O)N1` [Example E78, (S)-7-((3-fluoro-4-((2-(trifluoromethyl)pyridin-4-yl)oxy)benzyl)oxy)-2-methyl-2,3-dihydroimidazo[1,2-c]pyrimidin-5(1H)-one] are not above 1 nM and not above 100 nM.
On to `CC1(C)Cn2c(cc(OCc3ccc(Oc4ccnc(Cl)c4)c(F)c3)nc2=O)N1` [Example E82, 7-((4-((2-chloropyridin-4-yl)oxy)-3-fluorobenzyl)oxy)-2,2-dimethyl-2,3-dihydroimidazo[1,2-c]pyrimidin-5(1H)-one], for which the IC50 is not above 1 nM in assay [1] (setting [2]) and not above 100 nM at Lp-PLA2 in human plasma.
The matching figures for `C[C@H]1Cn2c(cc(OCc3ccc(Oc4ccc(F)c(F)c4)c(C#N)c3)nc2=O)N1C` [Example E88, (S)-2-(3,4-difluorophenoxy)-5-(((1,2-dimethyl-5-oxo-1,2,3,5-tetrahydroimidazo[1,2-c]pyrimidin-7-yl)oxy)methyl)benzonitrile]: not above 1 nM and not above 100 nM.
Regarding `C[C@H]1Cn2c(cc(OCc3ccc(Oc4ccc(Cl)c(C#N)c4)c(F)c3)nc2=O)N1C` [Example E89, (S)-2-chloro-5-(4-(((1,2-dimethyl-5-oxo-1,2,3,5-tetrahydroimidazo[1,2-c]pyrimidin-7-yl)oxy)methyl)-2-fluorophenoxy)benzonitrile], the IC50 is not above 1 nM in assay [1] (setting [2]) and not above 100 nM at Lp-PLA2 in human plasma.
The matching figures for `CC1(C)Cn2c(cc(OCc3ccc(Oc4cncc(Cl)c4)c(F)c3)nc2=O)N1` [Example E90, 7-((4-((5-chloropyridin-3-yl)oxy)-3-fluorobenzyl)oxy)-2,2-dimethyl-2,3-dihydroimidazo[1,2-c]pyrimidin-5(1H)-one]: not above 1 nM and not above 100 nM.
The matching figures for `CC1(C)Cn2c(cc(OCc3cc(F)c(Oc4cncc(C(F)(F)F)c4)c(F)c3)nc2=O)N1` [Example E91, 7-((3,5-difluoro-4-((5-(trifluoromethyl)pyridin-3-yl)oxy)benzyl)oxy)-2,2-dimethyl-2,3-dihydroimidazo[1,2-c]pyrimidin-5(1H)-one]: not above 1 nM and not above 100 nM.
Take `[2H]C([2H])(Oc1cc2n(c(=O)n1)CC(C)(C)N2C)c1cc(F)cc(F)c1` [Example E93, 7-(dideutero(3,5-difluorobenzyl)oxy)-1,2,2-trimethyl-2,3-dihydroimidazo[1,2-c]pyrimidin-5(1H)-one]: the IC50 in assay [1] (setting [2]) is not above 10 nM; at Lp-PLA2 in human plasma, not above 100 nM.
Take `CN1c2cc(OCc3cc(F)c(Oc4cnc(C(F)(F)F)nc4)c(F)c3)nc(=O)n2CC1(C)C` [Example E95, 7-((3,5-difluoro-4-((2-(trifluoromethyl)pyrimidin-5-yl)oxy)benzyl)oxy)-1,2,2-trimet-hyl-2,3-dihydroimidazo[1,2-c]pyrimidin-5(1H)-one]: the IC50 was not above 1 nM in assay [1] (setting [2]), 0.0794 nM in assay [1] (setting [3]) and not above 100 nM on Lp-PLA2 in human plasma.
The matching figures for `CC(C)N1c2cc(OCc3cc(F)cc(F)c3)nc(=O)n2CC1(C)C` [Example E96, 7-((3,5-difluorobenzyl)oxy)-1-isopropyl-2,2-dimethyl-2,3-dihydroimidazo[1,2-c]pyrimidin-5(1H)-one]: not above 1 nM, 0.316 nM and not above 100 nM.
The matching figures for `[2H]C([2H])(Oc1cc2n(c(=O)n1)CC(C)(C)N2C(C)C)c1cc(F)cc(F)c1` [Example E97, 7-(dideutero(3,5-difluorobenzyl)oxy)-1-isopropyl-2,2-dimethyl-2,3-dihydroimidazo[1,2-c]pyrimidin-5(1H)-one]: not above 1 nM, 0.631 nM and not above 100 nM.

For the origin of these results see patent US9051325B2, “Bicyclic [5,6] imidazo pyrimodone compounds for use in the treatment of diseases or conditions mediated by Lp-PLA2” (GlaxoSmithKline Intellectual Property Development Limited, priority 2013, dated 2015).
